How the values were obtained:
[1] = Peroxidation of multilamellar phosphatidylcholine (PC) liposomes induced by UVA, TBA assay (TBARS); settings: 3.5 mM PC liposomes, 275 kJ/m^2 UVA; for level of UVA-induced lipid peroxidation (TBARS absorbance): 100 μM compounds alone or combined, FIG. 4
[2] = Optical absorption spectra before and after UVA exposure (photostability); assay type: physicochemical; settings: 100 μM in phosphate buffer pH 7.4, 275 kJ/m^2 UVA, ethyl acetate extraction, FIG. 3
Protocol: FIG. 3. […] See Detailed Description for experimental details.
The reason for using buffer was to maintain the same medium as the peroxidation experiments so that comparisons between the optical absorption experiments and lipid peroxidation could be meaningful.
10 mM Stock solutions of TEMPOL and the photoactive ingredients were prepared in acetonitrile. […] The solutions were then transferred to a 24 multi-well plate for cell cultures (Orange Scientific, Cambrex BioScience, Walkerville, Inc.) which was placed on a brass block embedded on ice at a distance of 20 cm from the light source. […] After illumination, 2.4 ml of sample were collected from each well and extracted with the same volume of ethyl acetate. The organic phase was separated and its absorption spectrum was then run on a UV Kontron 941 spectrophotometer. For the non-illuminated samples, the same procedure was followed for the same length of time except that the samples were exposed to direct artificial laboratory working light.

[3] = Absorption spectra of 50 μM compounds in acetonitrile; assay type: physicochemical; settings: 50 μM in acetonitrile, FIG. 2
Protocol: FIG. 2. Absorption spectra of 50 μM compounds in acetonitrile.

[4] = test system: transgenic murine fibroblast culture; settings: transgenic murine fibroblast culture model of cutaneous photoaging; cited from earlier work
[5] = test system: human dermal fibroblasts; settings: cited from earlier work

| Compound | level of UVA-induced lipid peroxidation (TBARS absorbance) [1] | change in spectral absorption after UVA exposure [2] | further results |
| --- | --- | --- | --- |
| CCCCC(CC)COC(=O)C=Cc1ccc(OC)cc1 (centres unmarked) [OMC, 2-ethylhexyl-4-methoxycinnamate] | seems to protect | strong decrease in spectral absorption | – |
| 2,2,6,6-tetramethyl-piperidin-4-yl-p-methoxy cinnamyloxy-1-oxyl [MC-NO] | greatly reduced to almost control levels | retains the majority of its original absorbance | spectral profile and extinction coefficient [3]: same spectral profile and extinction coefficient as OMC |
| CC1(C)CC(O)CC(C)(C)N1[O] [TEMPOL, 4-hydroxy-2,2,6,6,-tetramethyl-piperidine-1-oxyl] | – | – | protection against UV radiation [4]: affords protection against UV radiation; protection against UV radiation [5]: affords protection against UV radiation |
| COc1ccc(C(=O)CC(=O)c2ccc(C(C)(C)C)cc2)cc1 [Parsol 1789, 4-tert-butyl-4′-methoxydibenzoylmethane] | – | – | level of UVA-induced lipid peroxidation (TBARS absorbance) with Parsol 1789 ([1]; 100 μM Parsol 1789 alone or combined with 100 μM compound, FIG. 5): significant increase |

— patent US8507529B2, “Methods of using a nitroxide antioxidant in cosmetic and dermatological compositions” (Jarrow Formulas, Inc., priority 2005, dated 2013)
